The values that follow are results of earlier work, collected in patent publication US20150289553A1, “METHOD OF DEVELOPING SAFE AND EFFECTIVE DIETARY SUPPLEMENTS” (priority 2014, published 2015).

Where two headings read alike, the source gives them in different places.

For series [1] the following is noted: for Clinically Effective Dosage Range: daily dosage, adults (18+ yrs.); for Dataset 2 Clinical Efficacy: Table 5, multivitamin/mineral for adult U.S. women.
The conditions of series [2]: high intake of supplemental calcium; men.
The conditions of series [3]: calcium supplements; almost 24,000 participants.
Assay in series [4]: not given
The source holds these as a separate data set.

The conditions of series [5]: 600 IU every other day; 39,876 women.
For series [6] the following is noted: 400 IU/d; 19 trials, 135,967 subjects.
For series [7] the following is noted: 400 IU every other day for 8 years; 14,641 men.
Where [8] appears, read: adults (18+ yrs.), derived from published literature and regulatory files.
[9] abbreviates: Table 5, multivitamin/mineral for adult U.S. women.

As for `CC1=CCCC(C)(C)C1/C=C/C(C)=C/C=C/C(C)=C/C=C/C=C(C)/C=C/C=C(C)/C=C/C1=C(C)CCCC1(C)C` (stereo not drawn) [Alpha-Carotene], in series [1], the “Clinically Effective Dosage Range” value is 0.01 to 5 mg. In addition, under setting [8], the “Upper Limits, Other Nutrients” value is reported as 8.3 mg.
On to `CC/C=C\C/C=C\C/C=C\CCCCCCCC(=O)O` [Alpha-Linolenic Acid], for which, under “in vivo”, the “Upper Limits, Other Nutrients” value is 25000 mg.
Consider `CC1=C(/C=C/C(C)=C/C=C/C(C)=C/C=C/C=C(C)/C=C/C=C(C)/C=C/C2=C(C)C(=O)[C@@H](O)CC2(C)C)C(C)(C)C[C@H](O)C1=O` [Astaxanthin], for which, in series [1], the “Clinically Effective Dosage Range” value was 4 to 100 mg. The “Upper Limits, Other Nutrients” value (in vivo) is recorded as 5.3 mg.
As for `CC1=C(/C=C/C(C)=C/C=C/C(C)=C/C=C/C=C(C)/C=C/C=C(C)/C=C/C2=C(C)CCCC2(C)C)C(C)(C)CCC1` [Beta-Carotene], in series [1], the “Clinically Effective Dosage Range” value is 1 to 180 mg. For the same compound, the “Upper Limits, CRN-listed Nutrients” value (adults (18+ yrs.), non-smokers) is given as 25 mg.
Regarding `O=C(O)CCCC[C@@H]1SC[C@@H]2NC(=O)N[C@@H]21` [Biotin], in series [1], the “Dataset 2 Clinical Efficacy” value was 0.003 to 15 mg and the “Clinically Effective Dosage Range” value is recorded as 3-15,000 mcg. For the same compound, the “Dataset 1 Upper Limits” value under setting [9] is 2.5 mg. Also, the “Upper Limits, CRN-listed Nutrients” value (adults (18+ yrs.)) is on record as 2,500 mcg.
`[B]` [Boron]: the “Clinically Effective Dosage Range” value in series [1] was 0.2 to 11.6 mg. For the same compound, under “in vivo”, the “Upper Limits, CRN-listed Nutrients” value was 6 mg.
On to `[Ca+2]` [Calcium], for which, in series [1], the “Dataset 2 Clinical Efficacy” value is 130 to 2000 mg and the “Clinically Effective Dosage Range” value is given as 130-2,000 mg. Besides, in series [2], the “risk of cardiovascular disease death” value is given as “associated with an excess risk of cardiovascular disease death”. Also, in series [3], the “risk of myocardial infarction” value is “raised the risk of myocardial infarction”. The “Dataset 1 Upper Limits” value under setting [9] is 1500 mg. Moreover, where the note is “adults (18+ yrs.)”, the “Upper Limits, CRN-listed Nutrients” value is 1,500 mg.
As to `C[N+](C)(C)CCO` [Choline], under setting [8], the “Upper Limits, Other Nutrients” value is reported as 3,500 mg.
`[Cr]` [Chromium]: in series [1], the “Dataset 2 Clinical Efficacy” value was 0.0035 to 1 mg and the “Clinically Effective Dosage Range” value is 3.5-1,000 mcg. For the same compound, under setting [9], the “Dataset 1 Upper Limits” value is 1 mg. Also, the “Upper Limits, CRN-listed Nutrients” value (adults (18+ yrs.)) is reported as 1,000 mcg.
Consider `[Cu]` [Copper], for which, in series [1], the “Dataset 2 Clinical Efficacy” value was 0.09 to 8 mg and the “Clinically Effective Dosage Range” value is 0.09 to 8 mg. Besides, where the note is “in vivo”, the “Dataset 1 Upper Limits” value was 9 mg and the “Upper Limits, CRN-listed Nutrients” value is 9 mg.
Regarding `Nc1nc2ncc(CNc3ccc(C(=O)N[C@@H](CCC(=O)O)C(=O)O)cc3)nc2c(=O)[nH]1` [Folic Acid], in series [1], the “Dataset 2 Clinical Efficacy” value was 0.04 to 5 mg and the “Clinically Effective Dosage Range” value is given as 40-5,000 mcg. The bioavailability entry in series [4] (folic acid in supplements versus folic acid in foods (folates)) is reported as “higher bioavailability”.
With `[Fe]` [Iron], in series [1], the “Dataset 2 Clinical Efficacy” value is 125 to 2000 mg and the “Clinically Effective Dosage Range” value is 1.8 to 120 mg. Further, where the note is “in vivo”, the “Dataset 1 Upper Limits” value is 60 mg and the “Upper Limits, CRN-listed Nutrients” value was 60 mg.
`CC1=C[C@H](O)CC(C)(C)[C@H]1/C=C/C(C)=C/C=C/C(C)=C/C=C/C=C(C)/C=C/C=C(C)/C=C/C1=C(C)C[C@@H](O)CC1(C)C` [Lutein]: in series [1], the “Dataset 2 Clinical Efficacy” value is 0.1 to 20 mg and the “Clinically Effective Dosage Range” value was 0.1 to 20 mg. In addition, under “in vivo”, the “Dataset 1 Upper Limits” value is 17.6 mg and the “Upper Limits, Other Nutrients” value is given as 17.6 mg.
With `CC(C)=CCC/C(C)=C/C=C/C(C)=C/C=C/C(C)=C/C=C/C=C(C)/C=C/C=C(C)/C=C/C=C(\C)CCC=C(C)C` [Lycopene], in series [1], the “Clinically Effective Dosage Range” value was 0.2 to 30 mg. Moreover, under setting [8], the “Upper Limits, Other Nutrients” value is 11.3 mg.
Consider `[Mg+2]` [Magnesium], for which, in series [1], the “Dataset 2 Clinical Efficacy” value was 42 to 1200 mg and the “Clinically Effective Dosage Range” value is 42-1,200 mg. Also, the “Dataset 1 Upper Limits” value under setting [9] is 400 mg. The “Upper Limits, CRN-listed Nutrients” value (adults (18+ yrs.)) is reported as 400 mg.
Regarding `[Mn+2]` [Manganese], in series [1], the “Dataset 2 Clinical Efficacy” value was 0.23 to 30 mg and the “Clinically Effective Dosage Range” value was 0.23 to 30 mg. Moreover, the “Dataset 1 Upper Limits” value under setting [9] is 10 mg. Besides, the “Upper Limits, CRN-listed Nutrients” value (adults (18+ yrs.)) is reported as 10 mg.
For the compound `[Mo]` [Molybdenum], the “Clinically Effective Dosage Range” value in series [1] was 0.0045 to 0.467 mg. The “Upper Limits, CRN-listed Nutrients” value (in vivo) was 0.35 mg.
On to `NC(=O)c1cccnc1` [Nicotinamide], for which, in series [1], the “Dataset 2 Clinical Efficacy” value is 1.6 to 3000 mg and the “Clinically Effective Dosage Range” value was 1.6-3,000 mg. The “Dataset 1 Upper Limits” value under setting [9] was 1500 mg. Also, the “Upper Limits, CRN-listed Nutrients” value (adults (18+ yrs.)) is 1,500 mg.
As to `O=C(O)c1cccnc1` [Nicotinic Acid], the “Clinically Effective Dosage Range” value in series [1] was 1.6-3,000 mg. Also, the “Upper Limits, CRN-listed Nutrients” value (adults (18+ yrs.)) is 250 mg.
Regarding `[P]` [Phosphorus], the “Clinically Effective Dosage Range” value in series [1] was 125-2,000 mg. For the same compound, the “Upper Limits, CRN-listed Nutrients” value (adults (18+ yrs.)) is 1,500 mg.
With `[K+]` [Potassium], in series [1], the “Clinically Effective Dosage Range” value is given as 470-5,000 mg. Moreover, the “Upper Limits, CRN-listed Nutrients” value (adults (18+ yrs.)) was 1,500 mg.
Take `[Se]` [Selenium]: in series [1], the “Dataset 2 Clinical Efficacy” value was 5.5-200^ mcg and the “Clinically Effective Dosage Range” value is 0.0055 to 0.2 mg. Besides, for the setting “in vivo”, the “Dataset 1 Upper Limits” value is 0.2 mg and the “Upper Limits, CRN-listed Nutrients” value was 0.2 mg.
For the compound `CC1=C(/C=C/C(C)=C/C=C/C(C)=C/CO)C(C)(C)CCC1` [Vitamin A (retinol and its esters), retinol], in series [1], the “Dataset 2 Clinical Efficacy” value was 0.09 to 3.3 mg and the “Clinically Effective Dosage Range” value is on record as 90-3,300 mcg. For the same compound, where the note is “in vivo”, the “Dataset 1 Upper Limits” value was 1.5 mg and the “Upper Limits, CRN-listed Nutrients” value is reported as 1,500 mcg.
In the case of `Cc1ncc(C[n+]2csc(CCO)c2C)c(N)n1` [Vitamin B1 (thiamin), thiamin], in series [1], the “Dataset 2 Clinical Efficacy” value is recorded as 0.12-1000^ mg and the “Clinically Effective Dosage Range” value is given as 0.12-1,000 mg. Moreover, under setting [9], the “Dataset 1 Upper Limits” value was 100 mg. Further, the “Upper Limits, CRN-listed Nutrients” value (adults (18+ yrs.)) was 100 mg.
Take `Cc1ncc(CO)c(CO)c1O` [Vitamin B6 (pyridoxine), pyridoxine]: in series [1], the “Dataset 2 Clinical Efficacy” value was 0.17 to 200 mg and the “Clinically Effective Dosage Range” value is 0.17 to 200 mg. In addition, the “Dataset 1 Upper Limits” value under setting [9] is 100 mg. Besides, for the setting “adults (18+ yrs.)”, the “Upper Limits, CRN-listed Nutrients” value is reported as 100 mg.
Regarding `O=C1O[C@H]([C@@H](O)CO)C(O)=C1O` [Vitamin C, ascorbic acid], in series [1], the “Dataset 2 Clinical Efficacy” value is 9 to 10000 mg and the “Clinically Effective Dosage Range” value is 9-10,000 mg.
`C=C1CC[C@H](O)C/C1=C/C=C1\CCC[C@]2(C)[C@@H]([C@H](C)CCCC(C)C)CC[C@@H]12` [Vitamin D, cholecalciferol]: in series [1], the “Dataset 2 Clinical Efficacy” value is 0.002 to 0.25 mg and the “Clinically Effective Dosage Range” value is 0.002 to 0.25 mg.
As for `Cc1c(C)c2c(c(C)c1O)CC[C@@](C)(CCC[C@H](C)CCC[C@H](C)CCCC(C)C)O2` [Vitamin E, RRR-alpha-tocopherol], in series [1], the “Dataset 2 Clinical Efficacy” value is 1.5 to 1342 mg and the “Clinically Effective Dosage Range” value is on record as 1.5-1,342 mg. Further, the “effects on cardiovascular health or cancer prevention” value in series [5] is given as “no effects”. In series [6], the mortality result is reported as “increased mortality”. Further, the “risk for cardiovascular disease” value in series [7] is recorded as “did not reduce the risk”. Further, under setting [9], the “Dataset 1 Upper Limits” value is 1000 mg. For the setting “healthy US adults, Embodiment 1”, the “UL (Upper Limit)” value was 1,000 mg.
As to `CC1=C(/C=C/C(C)=C/C=C/C(C)=C/C=C/C=C(C)/C=C/C=C(C)/C=C/C2=C(C)C[C@@H](O)CC2(C)C)C(C)(C)C[C@H](O)C1` [Zeaxanthin], the “Clinically Effective Dosage Range” value in series [1] was 0.01 to 10 mg. Further, the “Upper Limits, Other Nutrients” value (in vivo) was 10 mg.
For the compound `[O-2].[Zn+2]` [Zinc], in series [1], the “Dataset 2 Clinical Efficacy” value is 1.1 to 80 mg and the “Clinically Effective Dosage Range” value is 1.1 to 80 mg. Also, under setting [9], the “Dataset 1 Upper Limits” value is recorded as 30 mg. For the same compound, the “Upper Limits, CRN-listed Nutrients” value (adults (18+ yrs.)) is 30 mg.
On to `[O]=[Mg]` [magnesium oxide], for which, in series [4] (versus most organic magnesium salts or chelates (citrate, malate, glycinate)), the bioavailability entry was “lower bioavailability”.
On to Vitamin K, for which the “Clinically Effective Dosage Range” value in series [1] is 12-1,000 mcg. Under “in vivo”, the “Upper Limits, CRN-listed Nutrients” value is 10 mg.
Take cyanocobalamin [Vitamin B12]: in series [1], the “Dataset 2 Clinical Efficacy” value is 0.24-2500^ mcg and the “Clinically Effective Dosage Range” value is listed as 0.24-2,500 mcg. In addition, under “in vivo”, the “Dataset 1 Upper Limits” value was 3 mg and the “Upper Limits, CRN-listed Nutrients” value is given as 3,000 mcg.
